The results in this text go back to US11197878B2, “Anti-inflammatory composition including novel quercetin-based compound” (AMOREPACIFIC CORPORATION, priority 2017, dated 2021).

Holding throughout (type): cell-based
The test system of one assay is PGE2 (Prostaglandin E2). The experiment in a line: Test for inhibiting generation of PGE2 in H2O2-stimulated fibroblast (ELISA). Particulars: for inhibition at 100 µg/mL: Fibroblast, 100 μg/ml, {1−(test sample−control)/(H2O2−control)}×100, read-out: Inhibition effect according to Equation 1, PGE2; for PGE2: fibroblast culture medium, H2O2 500 μM 24 hours, then test material (31, 32: 100 μg/ml) 48 hours, ELISA. As to the method: (§1) Fibroblast (PromoCell, Germany) was inoculated in a 6-well culturing plate at a concentration of 1×10^5 cells, and cultured in a 5% CO2 incubator at 37° C. for 24 hours. The well was treated with H2O2 500 μM and stimulated for 24 hours, and then were treated with quercetin3-O-[3-O″-(E)-p-coumaroyl][β-D-glucopyranosyl-(1→3)-O-α-L-rhamnopyranosyl-(1→6)-O-β-D-glucopyranoside] (‘New Material 31’) and quercetin3-O-[3-O″-(E)-p-coumaroyl][α-L-rhamnopyranosyl-(1→6)-O-β-D-glucopyranoside]) (‘New Material 32’) at a concentration of 100 μg/ml, respectively, and reacted for 48 hours. After the reaction was finished, the culture medium was collected and the ELISA analysis was performed. Herein, α-bisabolol, which is the material typically used as an anti-inflammatory agent and abirritant, was used as a control. As PGE2, a kit of Assay Design® was used, and as IL-6 and IL-8, a kit of Endogen® was used, and the test was carried out according to the methods prescribed in the manuals of the respective companies. (‘31’ refers to New Material 31, and ‘32’ refers to New Material 32) Inhibition effect={1−(test sample−control)/(H2O2−control)}×100 <Equation 1>
(ELISA stands for enzyme-linked immunosorbent assay.)

The subject of a further assay is IL-8 (Interleukin 8). The experiment in a line: Test for inhibiting generation of IL-8 in H2O2-stimulated fibroblast (ELISA). The note with it: for inhibition at 100 µg/mL: Fibroblast, 100 μg/ml, {1−(test sample−control)/(H2O2−control)}×100, read-out: Inhibition effect according to Equation 1, IL-8; for IL-8: fibroblast culture medium, H2O2 500 μM 24 hours, then test material (31, 32: 100 μg/ml) 48 hours, ELISA. As to the method:
as §1

The next assay concerns IL-6 (Interleukin 6). The experiment in a line: Test for inhibiting generation of IL-6 in H2O2-stimulated fibroblast (ELISA). Particulars: for inhibition at 100 µg/mL: Fibroblast, 100 μg/ml, {1−(test sample−control)/(H2O2−control)}×100, read-out: Inhibition effect according to Equation 1, IL-6; for IL-6: fibroblast culture medium, H2O2 500 μM 24 hours, then test material (31, 32: 100 μg/ml) 48 hours, ELISA. As for the experimental part: as §1

`C[C@@H]1O[C@@H](OC[C@H]2O[C@@H](Oc3c(-c4ccc(O)c(O)c4)oc4cc(O)cc(O)c4c3=O)[C@H](O)[C@@H](OC(=O)/C=C/c3ccc(O)cc3)[C@@H]2O)[C@H](O)[C@H](O)[C@H]1O` [New Material 32, quercetin3-O-[3-O″-(E)-p-coumaroyl][α-L-rhamnopyranosyl-(1→6)-O-β-D-glucopyranoside]]: in the assay on PGE2 (Prostaglandin E2), the inhibition (in general, the drop in the measured response relative to a control, in per cent) at 100 µg/mL turned out to be 48.3% and the PGE2 worked out at 280 pg/mL. Moreover, in the assay with IL-8 (Interleukin 8), the inhibition at 100 µg/mL was 61.1% and the IL-8 came to 235 pg/mL. In addition, in the assay with IL-6 (Interleukin 6), the inhibition at 100 µg/mL was found to be 29.2% and the IL-6 stood at 226 pg/mL.

With `C[C@@H]1O[C@@H](OC[C@H]2O[C@@H](Oc3c(-c4ccc(O)c(O)c4)oc4cc(O)cc(O)c4c3=O)[C@H](O)[C@@H](OC(=O)/C=C/c3ccc(O)cc3)[C@@H]2O)[C@H](O)[C@H](O[C@@H]2O[C@H](CO)[C@@H](O)[C@H](O)[C@H]2O)[C@H]1O` [New Material 31, quercetin3-O-[3-O″-(E)-p-coumaroyl][β-D-glucopyranosyl-(1→3)-O-α-L-rhamnopyranosyl-(1→6)-O-β-D-glucopyranoside]], in the assay with PGE2 (Prostaglandin E2), the inhibition at 100 µg/mL came out at 51.7% and the PGE2 was found to be 275 pg/mL. Further, in the assay with IL-8 (Interleukin 8), the inhibition at 100 µg/mL worked out at 61.1% and the IL-8 is 235 pg/mL. In the assay on IL-6 (Interleukin 6), the inhibition at 100 µg/mL was 29.2% and the IL-6 is 226 pg/mL.
